Assay results: patent US11236129B2, “IL-17A binding peptides and medical uses thereof” (Dompe' Farmaceutici S.P.A., priority 2018, dated 2022)
Residues, ends and D or L forms follow the SMILES beside them.

Target: IL-17RA/IL17RC dimerization induced by IL-17A (Homo sapiens, UniProt Q16552)
Assay: IL-17RA/IL17RC dimerization assay in response to IL-17A (PathHunter Cytokine Receptor Assay)
Assay type: cell-based
Conditions: IL-17A at EC80; read-out: IC50 in IL-17RA/IL7RC dimerization assay
Outline: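 PathHunter cells with IL-17RA and IL-17RC tagged for β-galactosidase complementation were preincubated 60 min with peptide (1% vehicle). IL-17A was then added at EC80 for 6–16 h at 37 °C, and chemiluminescence was read. Inhibition is relative to the EC80 and vehicle controls.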

IL-17RA/IL17RC dimerization induced by IL-17A, sequence (Q16552 24-155): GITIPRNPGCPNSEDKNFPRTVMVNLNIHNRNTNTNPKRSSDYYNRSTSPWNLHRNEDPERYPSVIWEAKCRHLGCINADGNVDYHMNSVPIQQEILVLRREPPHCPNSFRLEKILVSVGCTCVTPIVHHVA

Question: Which IC50 does the source give for `CC[C@H](C)[C@H](NC(C)=O)C(=O)N[C@@H](Cc1c[nH]cn1)C(=O)N[C@H](C(=O)N[C@H](C(=O)N[C@H](C(=O)N1CCC[C@H]1C(=O)N[C@@H](C)C(=O)N[C@@H](CC(=O)O)C(=O)N[C@@H](CC(C)C)C(=O)N[C@@H](Cc1c[nH]c2ccccc12)C(=O)N[C@@H](CC(=O)O)C(=O)N[C@@H](Cc1c[nH]c2ccccc12)C(=O)N[C@H](C(=O)N[C@@H](CCC(N)=O)C(=O)N[C@@H](CCCCN)C(N)=O)[C@@H](C)CC)[C@@H](C)CC)[C@@H](C)O)C(C)C` [SEQ ID NO: 220] (Ac-IHVTIPADLWDWIQK-NH2) here?
Answer: < 10 µM

Question: For `CC[C@H](C)[C@H](NC(C)=O)C(=O)N[C@@H](Cc1c[nH]cn1)C(=O)N[C@H](C(=O)N[C@H](C(=O)N[C@H](C(=O)N1CCC[C@H]1C(=O)N[C@@H](C)C(=O)N[C@@H](CC(=O)O)C(=O)N[C@@H](CC(C)C)C(=O)N[C@@H](Cc1c[nH]c2ccccc12)C(=O)N[C@@H](CC(=O)O)C(=O)N[C@@H](Cc1c[nH]c2ccccc12)C(=O)N[C@H](C(=O)N[C@@H](CC(=O)O)C(=O)N[C@@H](CCCCN)C(N)=O)[C@@H](C)CC)[C@@H](C)CC)[C@@H](C)O)C(C)C` [SEQ ID NO: 221] (Ac-IHVTIPADLWDWIDK-NH2), which IC50 is on record?
Answer: < 10 µM

Question: `CC[C@H](C)[C@H](NC(C)=O)C(=O)N[C@@H](Cc1c[nH]cn1)C(=O)N[C@H](C(=O)N[C@H](C(=O)N[C@H](C(=O)N1CCC[C@H]1C(=O)N[C@@H](C)C(=O)N[C@@H](CC(=O)O)C(=O)N[C@@H](CC(C)C)C(=O)N[C@@H](Cc1c[nH]c2ccccc12)C(=O)N[C@@H](CC(=O)O)C(=O)N[C@@H](Cc1c[nH]c2ccccc12)C(=O)N[C@H](C(=O)N[C@@H](CC(N)=O)C(=O)N[C@@H](Cc1c[nH]cn1)C(N)=O)[C@@H](C)CC)[C@@H](C)CC)[C@@H](C)O)C(C)C` [SEQ ID NO: 222] (Ac-IHVTIPADLWDWINH-NH2) was tested. Which IC50 did it give?
Answer: < 10 µM

Question: How did the IC50 turn out when `CC[C@H](C)[C@H](NC(C)=O)C(=O)N[C@@H](Cc1c[nH]cn1)C(=O)N[C@H](C(=O)N[C@H](C(=O)N[C@H](C(=O)N1CCC[C@H]1C(=O)N[C@@H](C)C(=O)N[C@@H](CC(=O)O)C(=O)N[C@@H](CC(C)C)C(=O)N[C@@H](Cc1c[nH]c2ccccc12)C(=O)N[C@@H](CC(=O)O)C(=O)N[C@@H](Cc1c[nH]c2ccccc12)C(=O)N[C@H](C(=O)N[C@@H](CC(N)=O)C(=O)N[C@@H](CC(=O)O)C(N)=O)[C@@H](C)CC)[C@@H](C)CC)[C@@H](C)O)C(C)C` [SEQ ID NO: 223] (Ac-IHVTIPADLWDWIND-NH2) was run?
Answer: < 10 µM

Question: `CC(=O)N[C@H](C(=O)N[C@@H](Cc1c[nH]cn1)C(=O)N[C@H](C(=O)N[C@H](C(=O)N[C@H](C(=O)N1CCC[C@H]1C(=O)N[C@@H](CCC(N)=O)C(=O)N[C@@H](CCC(=O)O)C(=O)N[C@@H](CC(C)C)C(=O)N[C@@H](Cc1c[nH]c2ccccc12)C(=O)N[C@@H](CCC(=O)O)C(=O)N[C@@H](Cc1c[nH]c2ccccc12)C(=O)N[C@H](C(=O)N[C@@H](CCCNC(=N)N)C(=O)N[C@@H](CCCNC(=N)N)C(N)=O)C(C)C)C(C)C)[C@@H](C)O)C(C)C)C(C)C` [SEQ ID NO: 224] (Ac-VHVTVPQELWEWVRR-NH2) was tested. Which IC50 did it give?
Answer: < 10 µM

Question: How did the IC50 turn out when `CC(=O)N[C@H](C(=O)N[C@@H](Cc1c[nH]cn1)C(=O)N[C@H](C(=O)N[C@H](C(=O)N[C@H](C(=O)N1CCC[C@H]1C(=O)N[C@@H](CCC(N)=O)C(=O)N[C@@H](CCC(=O)O)C(=O)N[C@@H](CC(C)C)C(=O)N[C@@H](Cc1ccccc1)C(=O)N[C@@H](CCC(=O)O)C(=O)N[C@@H](Cc1c[nH]c2ccccc12)C(=O)N[C@H](C(=O)N[C@@H](CCCNC(=N)N)C(=O)N[C@@H](CCCNC(=N)N)C(N)=O)C(C)C)C(C)C)[C@@H](C)O)C(C)C)C(C)C` [SEQ ID NO: 225] (Ac-VHVTVPQELFEWVRR-NH2) was run?
Answer: < 10 µM

Question: `CC(=O)N[C@H](C(=O)N[C@@H](Cc1c[nH]cn1)C(=O)N[C@H](C(=O)N[C@H](C(=O)N[C@H](C(=O)N1CCC[C@H]1C(=O)N[C@@H](CCC(N)=O)C(=O)N[C@@H](CCC(=O)O)C(=O)N[C@@H](CC(C)C)C(=O)N[C@@H](Cc1ccc(O)cc1)C(=O)N[C@@H](CCC(=O)O)C(=O)N[C@@H](Cc1c[nH]c2ccccc12)C(=O)N[C@H](C(=O)N[C@@H](CCCNC(=N)N)C(=O)N[C@@H](CCCNC(=N)N)C(N)=O)C(C)C)C(C)C)[C@@H](C)O)C(C)C)C(C)C` [SEQ ID NO: 226] (Ac-VHVTVPQELYEWVRR-NH2) was tested. Which IC50 did it give?
Answer: < 10 µM

Question: `CC(=O)N[C@H](C(=O)N[C@@H](Cc1c[nH]cn1)C(=O)N[C@H](C(=O)N[C@H](C(=O)N[C@H](C(=O)N1CCC[C@H]1C(=O)N[C@@H](CCC(N)=O)C(=O)N[C@@H](CCC(=O)O)C(=O)N[C@@H](CC(C)C)C(=O)N[C@@H](Cc1c[nH]c2ccccc12)C(=O)N[C@@H](CCC(=O)O)C(=O)N[C@@H](Cc1c[nH]c2ccccc12)C(=O)N[C@H](C(=O)N[C@@H](CCC(=O)O)C(=O)N[C@@H](CCC(=O)O)C(N)=O)C(C)C)C(C)C)[C@@H](C)O)C(C)C)C(C)C` [SEQ ID NO: 227] (Ac-VHVTVPQELWEWVEE-NH2) was tested. Which IC50 did it give?
Answer: < 10 µM

Question: `CC(=O)N[C@H](C(=O)N[C@@H](Cc1c[nH]cn1)C(=O)N[C@H](C(=O)N[C@H](C(=O)N[C@H](C(=O)N1CCC[C@H]1C(=O)N[C@@H](CCC(N)=O)C(=O)N[C@@H](CCC(=O)O)C(=O)N[C@@H](CC(C)C)C(=O)N[C@@H](Cc1ccccc1)C(=O)N[C@@H](CCC(=O)O)C(=O)N[C@@H](Cc1c[nH]c2ccccc12)C(=O)N[C@H](C(=O)N[C@@H](CCC(=O)O)C(=O)N[C@@H](CCC(=O)O)C(N)=O)C(C)C)C(C)C)[C@@H](C)O)C(C)C)C(C)C` [SEQ ID NO: 228] (Ac-VHVTVPQELFEWVEE-NH2) was tested. Which IC50 did it give?
Answer: < 10 µM

Question: Which IC50 does the source give for `CC(=O)N[C@H](C(=O)N[C@@H](Cc1c[nH]cn1)C(=O)N[C@H](C(=O)N[C@H](C(=O)N[C@H](C(=O)N1CCC[C@H]1C(=O)N[C@@H](CCC(N)=O)C(=O)N[C@@H](CCC(=O)O)C(=O)N[C@@H](CC(C)C)C(=O)N[C@@H](Cc1ccc(O)cc1)C(=O)N[C@@H](CCC(=O)O)C(=O)N[C@@H](Cc1c[nH]c2ccccc12)C(=O)N[C@H](C(=O)N[C@@H](CCC(=O)O)C(=O)N[C@@H](CCC(=O)O)C(N)=O)C(C)C)C(C)C)[C@@H](C)O)C(C)C)C(C)C` [SEQ ID NO: 229] (Ac-VHVTVPQELYEWVEE-NH2) here?
Answer: < 10 µM

Question: With `CC[C@H](C)[C@H](NC(=O)[C@H](CO)NC(=O)[C@@H](NC(=O)[C@H](Cc1c[nH]cn1)NC(=O)[C@@H](NC(C)=O)C(C)C)C(C)C)C(=O)N1CCC[C@H]1C(=O)N[C@@H](CCC(N)=O)C(=O)N[C@@H](CCC(=O)O)C(=O)N[C@@H](CC(C)C)C(=O)N[C@@H](Cc1c[nH]c2ccccc12)C(=O)N[C@@H](CCC(=O)O)C(=O)N[C@@H](Cc1c[nH]c2ccccc12)C(=O)N[C@H](C(=O)N[C@@H](CCCNC(=N)N)C(=O)N[C@@H](CCCNC(=N)N)C(N)=O)C(C)C` [SEQ ID NO: 230] (Ac-VHVSIPQELWEWVRR-NH2) as the compound, how does the IC50 read?
Answer: < 10 µM

Question: How did the IC50 turn out when `CC(=O)N[C@H](C(=O)N[C@@H](Cc1c[nH]cn1)C(=O)N[C@H](C(=O)N[C@@H](CO)C(=O)N[C@H](C(=O)N1CCC[C@H]1C(=O)N[C@@H](CCC(N)=O)C(=O)N[C@@H](CCC(=O)O)C(=O)N[C@@H](CC(C)C)C(=O)N[C@@H](Cc1c[nH]c2ccccc12)C(=O)N[C@@H](CCC(=O)O)C(=O)N[C@@H](Cc1c[nH]c2ccccc12)C(=O)N[C@H](C(=O)N[C@@H](CCCNC(=N)N)C(=O)N[C@@H](CCCNC(=N)N)C(N)=O)C(C)C)C(C)C)C(C)C)C(C)C` [SEQ ID NO: 231] (Ac-VHVSVPQELWEWVRR-NH2) was run?
Answer: < 10 µM

Question: Which IC50 does the source give for `CC(=O)N[C@H](C(=O)N[C@@H](Cc1c[nH]cn1)C(=O)N[C@H](C(=O)N[C@@H](CO)C(=O)N[C@H](C(=O)N1CCC[C@H]1C(=O)N[C@@H](CCC(N)=O)C(=O)N[C@@H](CCC(=O)O)C(=O)N[C@@H](CC(C)C)C(=O)N[C@@H](Cc1ccc(O)cc1)C(=O)N[C@@H](CCC(=O)O)C(=O)N[C@@H](Cc1c[nH]c2ccccc12)C(=O)N[C@H](C(=O)N[C@@H](CCCNC(=N)N)C(=O)N[C@@H](CCCNC(=N)N)C(N)=O)C(C)C)C(C)C)C(C)C)C(C)C` [SEQ ID NO: 232] (Ac-VHVSVPQELYEWVRR-NH2) here?
Answer: < 10 µM

Question: For `CC[C@H](C)[C@H](NC(=O)[C@@H](NC(=O)[C@@H](NC(=O)[C@H](CCCNC(=N)N)NC(=O)[C@@H](NC(C)=O)C(C)C)C(C)C)[C@@H](C)O)C(=O)N1CCC[C@H]1C(=O)N[C@@H](CCC(N)=O)C(=O)N[C@@H](CCC(=O)O)C(=O)N[C@@H](CC(C)C)C(=O)N[C@@H](Cc1c[nH]c2ccccc12)C(=O)N[C@@H](CCC(=O)O)C(=O)N[C@@H](Cc1c[nH]c2ccccc12)C(=O)N[C@H](C(=O)N[C@@H](CCCNC(=N)N)C(=O)N[C@@H](CCCNC(=N)N)C(N)=O)C(C)C` [SEQ ID NO: 233] (Ac-VRVTIPQELWEWVRR-NH2), which IC50 is on record?
Answer: < 10 µM

Question: Which IC50 does the source give for `CC(=O)N[C@H](C(=O)N[C@@H](CCCNC(=N)N)C(=O)N[C@H](C(=O)N[C@H](C(=O)N[C@H](C(=O)N1CCC[C@H]1C(=O)N[C@@H](CCC(N)=O)C(=O)N[C@@H](CCC(=O)O)C(=O)N[C@@H](CC(C)C)C(=O)N[C@@H](Cc1ccc(O)cc1)C(=O)N[C@@H](CCC(=O)O)C(=O)N[C@@H](Cc1c[nH]c2ccccc12)C(=O)N[C@H](C(=O)N[C@@H](CCCNC(=N)N)C(=O)N[C@@H](CCCNC(=N)N)C(N)=O)C(C)C)C(C)C)[C@@H](C)O)C(C)C)C(C)C` [SEQ ID NO: 234] (Ac-VRVTVPQELYEWVRR-NH2) here?
Answer: < 10 µM

Question: With `CC(=O)N[C@H](C(=O)N[C@@H](CCCNC(=N)N)C(=O)N[C@H](C(=O)N[C@H](C(=O)N[C@H](C(=O)N1CCC[C@H]1C(=O)N[C@@H](CCC(N)=O)C(=O)N[C@@H](CCC(=O)O)C(=O)N[C@@H](CC(C)C)C(=O)N[C@@H](Cc1c[nH]c2ccccc12)C(=O)N[C@@H](CCC(=O)O)C(=O)N[C@@H](Cc1c[nH]c2ccccc12)C(=O)N[C@H](C(=O)N[C@@H](CCCNC(=N)N)C(=O)N[C@@H](CCCNC(=N)N)C(N)=O)C(C)C)C(C)C)[C@@H](C)O)C(C)C)C(C)C` [SEQ ID NO: 235] (Ac-VRVTVPQELWEWVRR-NH2) as the compound, how does the IC50 read?
Answer: < 10 µM
